Measurements: PubChem BioAssay AID330 (DTP/NCI, 2004)
Several values for one entry are separate records, joined by “and”; a condition that tells them apart may be missing. Identical values can stand only once. Inconclusive results and toxic doses are left out.

Tested on: P388 leukemia ip, CD2F1 mice, survival T/C
Experiment: NCI In Vivo Anticancer Drug Screen. Data for tumor model P388 Leukemia (intraperitoneal) in CD2F1 (CDF1) mice
Settings: endpoint: median survival time, higher = longer survival
In short: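 Mice carrying the transplanted tumor received test compound or vehicle. Survival was recorded in each group, and the value is the treated-group measurement divided by that of the vehicle-treated control group.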

[1] = dose: 50.0 mg/kg/injection, schedule: Q01DX009 (ip), vehicle: Klucel (hydroxypropylcellulose) (HPC)
[2] = dose: 100.0 mg/kg/injection, schedule: Q01DX009 (ip), vehicle: Klucel (hydroxypropylcellulose) (HPC)
[3] = dose: 200.0 mg/kg/injection, schedule: Q01DX009 (ip), vehicle: Klucel (hydroxypropylcellulose) (HPC)
[4] = dose: 50.0 mg/kg/injection, schedule: Q01DX005 (ip), vehicle: saline with Tween-80
[5] = dose: 100.0 mg/kg/injection, schedule: Q01DX005 (ip), vehicle: saline with Tween-80
[6] = dose: 200.0 mg/kg/injection, schedule: Q01DX005 (ip), vehicle: saline with Tween-80
[7] = dose: 50.0 mg/kg/injection, schedule: Q01DX009 (ip), vehicle: saline with Tween-80
[8] = dose: 100.0 mg/kg/injection, schedule: Q01DX009 (ip), vehicle: saline with Tween-80
[9] = dose: 200.0 mg/kg/injection, schedule: Q01DX009 (ip), vehicle: saline with Tween-80
[10] = dose: 50.0 mg/kg/injection, schedule: Q01DX005 (ip), vehicle: saline
[11] = dose: 100.0 mg/kg/injection, schedule: Q01DX005 (ip), vehicle: saline
[12] = dose: 200.0 mg/kg/injection, schedule: Q01DX005 (ip), vehicle: saline
[13] = dose: 50.0 mg/kg/injection, schedule: Q01DX009 (ip), vehicle: saline
[14] = dose: 100.0 mg/kg/injection, schedule: Q01DX009 (ip), vehicle: saline
[15] = dose: 200.0 mg/kg/injection, schedule: Q01DX009 (ip), vehicle: saline
[16] = dose: 50.0 mg/kg/injection, schedule: Q01DX005 (ip), vehicle: Klucel (hydroxypropylcellulose) (HPC)
[17] = dose: 200.0 mg/kg/injection, schedule: Q01DX005 (ip), vehicle: Klucel (hydroxypropylcellulose) (HPC)
[18] = dose: 7.5 mg/kg/injection, schedule: Q01DX005 (ip), vehicle: saline
[19] = dose: 15.0 mg/kg/injection, schedule: Q01DX005 (ip), vehicle: saline
[20] = dose: 30.0 mg/kg/injection, schedule: Q01DX005 (ip), vehicle: saline

Cn1ncc2c(Cl)ncnc21
T/C [1]: 91 % of control | T/C [2]: 93 % of control | T/C [3]: 107 % of control

O=NNc1ccc(Cl)cn1
T/C (dose: 3.12 mg/kg/injection, schedule: Q01DX009 (ip), vehicle: water): 123 % of control | T/C (dose: 12.5 mg/kg/injection, schedule: Q01DX009 (ip), vehicle: water): 187 % of control

Cc1ccc(S(=O)(=O)CC(=O)CC(=O)C(C#N)c2cccc(Cl)c2)cc1 (centres undefined)
T/C [4]: 100 % of control | T/C [5]: 99 % of control | T/C [6]: 107 % of control

COC1N(C2CC(O)C(CO)O2)C(=O)NC(=O)C1(F)Br (centres undefined)
T/C (dose: 178.0 mg/kg/injection, schedule: Q04DX003 (ip), vehicle: saline): 118 % of control

C/C=C(\C)c1cc(OC)c(C)c(=O)o1
T/C (dose: 25.0 mg/kg/injection, schedule: Q04DX003 (ip), vehicle: Klucel (hydroxypropylcellulose) (HPC)): 118 % of control | T/C (dose: 50.0 mg/kg/injection, schedule: Q04DX003 (ip), vehicle: Klucel (hydroxypropylcellulose) (HPC)): 116 % of control | T/C (dose: 100.0 mg/kg/injection, schedule: Q04DX003 (ip), vehicle: Klucel (hydroxypropylcellulose) (HPC)): 114 % of control

O=c1[nH]c(=O)c2nc(-c3ccccn3)cnc2[nH]1
T/C (dose: 50.0 mg/kg/injection, schedule: Q01DX001 (ip), vehicle: saline): 101 % of control | T/C (dose: 100.0 mg/kg/injection, schedule: Q01DX001 (ip), vehicle: saline): 90 % of control | T/C (dose: 200.0 mg/kg/injection, schedule: Q01DX001 (ip), vehicle: saline): 92 % of control

COC1CC(N)C2OC(c3ccccc3)OCC2O1 (centres undefined)
T/C [7]: 99 % of control | T/C [8]: 101 % of control | T/C [9]: 109 % of control

O=C(O)CC(O)(CC(=O)O)C(=O)O.O=C(O)CC(O)(CC(=O)O)C(=O)O.[O]=[Mo]1[O][Mo](=[O])[O]1
T/C (dose: 25.0 mg/kg/injection, schedule: Q01DX009 (ip), vehicle: saline): 93 % of control

CCN(CCCl)/N=N/c1nc2c([nH]1)c(=O)n(C)c(=O)n2C
T/C [10]: 100 % of control | T/C [11]: 105 % of control | T/C [12]: 109 % of control

CCN(CC)C(=O)C(Cc1ccc(OC)c(OC)c1)C(Cc1ccc(OC)c(OC)c1)C(=O)O (centres undefined)
T/C (dose: 100.0 mg/kg/injection, schedule: Q04DX003 (ip), vehicle: other): 95 % of control | T/C (dose: 200.0 mg/kg/injection, schedule: Q04DX003 (ip), vehicle: other): 95 % of control | T/C (dose: 400.0 mg/kg/injection, schedule: Q04DX003 (ip), vehicle: other): 95 % of control

CCOC(=O)C(CC(=O)O)Cc1cccc(OC)c1OC (centres undefined)
T/C (dose: 25.0 mg/kg/injection, schedule: Q01DX009 (ip), vehicle: other): 101 % of control | T/C (dose: 50.0 mg/kg/injection, schedule: Q01DX009 (ip), vehicle: other): 100 % of control | T/C (dose: 100.0 mg/kg/injection, schedule: Q01DX009 (ip), vehicle: other): 111 % of control | T/C (dose: 200.0 mg/kg/injection, schedule: Q01DX009 (ip), vehicle: other): 97 % of control | T/C (dose: 400.0 mg/kg/injection, schedule: Q01DX009 (ip), vehicle: other): 93 % of control

COc1nc(NCC(C)O)nc(NCC(C)O)n1 (centres undefined)
T/C [13]: 100 % of control | T/C [14]: 89 % of control | T/C [15]: 99 % of control

CC12CCN=C1c1ccc3cc(O)ccc3c1CC2 (centres undefined)
T/C (dose: 100.0 mg/kg/injection, schedule: Q01DX001 (sc), vehicle: steriod suspending solution): 104 % of control | T/C (dose: 200.0 mg/kg/injection, schedule: Q01DX001 (sc), vehicle: steriod suspending solution): 118 % of control | T/C (dose: 400.0 mg/kg/injection, schedule: Q01DX001 (sc), vehicle: steriod suspending solution): 100 % of control

COc1cc(OC)c(C2CC(C)(OC)Oc3cc4c(cc32)OCO4)c(OC)c1 (centres undefined)
T/C [4]: 103 % of control | T/C [5]: 97 % of control | T/C [6]: 90 % of control

NN1CC(=O)N(c2ccccc2)CC1=O
T/C [7]: 100 % of control | T/C [8]: 94 % of control | T/C [9]: 94 % of control

CCc1nc(N)nc(N)c1-c1ccc(Cl)c(N=CN(C)C)c1
T/C (dose: 60.0 mg/kg/injection, schedule: Q01DX005 (ip), vehicle: saline with Tween-80): 102 % of control | T/C (dose: 120.0 mg/kg/injection, schedule: Q01DX005 (ip), vehicle: saline with Tween-80): 108 % of control | T/C (dose: 240.0 mg/kg/injection, schedule: Q01DX005 (ip), vehicle: saline with Tween-80): 108 % of control

COc1cc(C(=O)NC(=S)Nc2csc(-c3ccc(F)cc3)n2)cc(OC)c1OC
T/C [16]: 100 % of control | T/C (dose: 100.0 mg/kg/injection, schedule: Q01DX005 (ip), vehicle: Klucel (hydroxypropylcellulose) (HPC)): 94 % of control | T/C [17]: 90 % of control

CC(C)SC(=S)Nc1cc(Cl)c(Cl)cc1Cl
T/C [7]: 98 % of control | T/C [8]: 102 % of control

COc1cccc2c1C(=O)c1c(O)c(C(CC(=O)O)OC3CC(N)C(O)C(C)O3)c(CO)c(O)c1C2=O (centres undefined)
T/C (dose: 100.0 mg/kg/injection, schedule: Q04DX003 (ip), vehicle: water): 106 % of control | T/C (dose: 200.0 mg/kg/injection, schedule: Q04DX003 (ip), vehicle: water): 110 % of control

CCOP(=O)(O)C1CCCC(C)[N-]1.CCOP(=O)(O)C1CCCC(C)[N-]1.CCOP(=O)(O)C1CCCC(C)[N-]1.[Ti+3] (centres undefined)
T/C (dose: 50.0 mg/kg/injection, schedule: Q01DX001 (ip), vehicle: suspension in saline): 94 % of control | T/C (dose: 100.0 mg/kg/injection, schedule: Q01DX001 (ip), vehicle: suspension in saline): 99 % of control | T/C (dose: 200.0 mg/kg/injection, schedule: Q01DX001 (ip), vehicle: suspension in saline): 88 % of control

O=c1[nH]c2ccccc2n1CCCN1CCC(n2c(=O)[nH]c3cc(Cl)ccc32)CC1
T/C [13]: 90 % of control | T/C [14]: 91 % of control | T/C [15]: 88 % of control

CN(C)c1ccc2nc3ccc(=N)cc-3sc2c1
T/C (dose: 60.0 mg/kg/injection, schedule: Q01DX005 (ip), vehicle: saline): 114 % of control | T/C (dose: 120.0 mg/kg/injection, schedule: Q01DX005 (ip), vehicle: saline): 118 % of control

CCC(O)CN(C)Cc1cc2c(c3ccccc13)CCCC2 (centres undefined)
T/C [13]: 106 % of control | T/C [14]: 108 % of control

Nc1nnc2nc(C3(c4nc5nnc(N)n5[nH]c4=O)CCCC3=O)c(=O)[nH]n12
T/C [10]: 106 % of control | T/C [11]: 94 % of control | T/C [12]: 106 % of control

CCCCONc1ccnc(=O)[nH]1
T/C (dose: 37.5 mg/kg/injection, schedule: Q01DX001 (ip), vehicle: saline): 100 % of control | T/C (dose: 75.0 mg/kg/injection, schedule: Q01DX001 (ip), vehicle: saline): 100 % of control | T/C (dose: 150.0 mg/kg/injection, schedule: Q01DX001 (ip), vehicle: saline): 107 % of control

COc1cc(OC)c(NC(=S)NC(C)C)cc1Cl
T/C [1]: 91 % of control | T/C [2]: 96 % of control | T/C [3]: 99 % of control

CN1C2CCC1CC(Cl)C2 (centres undefined)
T/C (dose: 6.0 mg/kg/injection, schedule: Q01DX005 (ip), vehicle: saline): 107 % of control | T/C [18]: 91 % of control | T/C (dose: 12.0 mg/kg/injection, schedule: Q01DX005 (ip), vehicle: saline): 107 % of control | T/C [19]: 99 % of control | T/C (dose: 25.0 mg/kg/injection, schedule: Q01DX005 (ip), vehicle: saline): 102 % of control | T/C [20]: 99 % of control

Cc1ncc(CNC(=O)NCCCl)c(N)n1
T/C [1]: 102 % of control | T/C [2]: 103 % of control | T/C [3]: 108 % of control

CCOC(=O)N(C)N=NC
T/C (dose: 3.75 mg/kg/injection, schedule: Q01DX005 (ip), vehicle: saline): 100 % of control | T/C [18]: 107 % of control and 109 % of control | T/C [19]: 105 % of control | T/C [20]: 120 % of control

CCc1nc(N)nc(N)c1-c1ccc2nn(-c3ccccc3)[n+]([O-])c2c1
T/C [16]: 108 % of control | T/C [17]: 87 % of control

CN(c1ccccc1)c1c2c(oc(=O)c1Cl)CCSC2
T/C (dose: 100.0 mg/kg/injection, schedule: Q04DX003 (ip), vehicle: saline with Tween-80): 94 % of control | T/C (dose: 200.0 mg/kg/injection, schedule: Q04DX003 (ip), vehicle: saline with Tween-80): 98 % of control | T/C (dose: 400.0 mg/kg/injection, schedule: Q04DX003 (ip), vehicle: saline with Tween-80): 91 % of control
